Measurements as given in ChEMBL document CHEMBL1201862, “PubChem BioAssay data set” (2004).
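Test compounds were applied to cells in 96-well plates for 48 hours at 5 doses. The concentration for 50% growth inhibition is given as GI50.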 Active and inactive are the calls of the source. No stated cut-off is given here; in the data, active = GI50 up to about 1.1 µM and inactive = higher.

Key:
Test in all cases: growth of human tumour cells (NCI), 48 h
786-0 = test system: 786-0
A498 = test system: A498
A549 = test system: A549
ACHN = test system: ACHN
BT-549 = test system: BT-549
CAKI-1 = test system: CAKI-1
CCRF-CEM = test system: CCRF-CEM
COLO 205 = test system: COLO 205
DU-145 = test system: DU-145
EKVX = test system: EKVX
HCT-116 = test system: HCT-116
HCT-15 = test system: HCT-15
HL-60 = test system: HL-60
HOP-62 = test system: HOP-62
HOP-92 = test system: HOP-92
HT-29 = test system: HT-29
Hs-578T = test system: Hs-578T
IGROV-1 = test system: IGROV-1
K562 = test system: K562
KM12 = test system: KM12
LOX IMVI = test system: LOX IMVI
M14 = test system: M14
MCF7 = test system: MCF7
MDA-MB-231 = test system: MDA-MB-231
MDA-MB-435 = test system: MDA-MB-435
MDA-N = test system: MDA-N
MOLT-4 = test system: MOLT-4
Malme-3M = test system: Malme-3M
NCI-H226 = test system: NCI-H226
NCI-H23 = test system: NCI-H23
NCI-H460 = test system: NCI-H460
NCI-H522 = test system: NCI-H522
NCI/ADR-RES = test system: NCI/ADR-RES
OVCAR-3 = test system: OVCAR-3
OVCAR-4 = test system: OVCAR-4
OVCAR-5 = test system: OVCAR-5
OVCAR-8 = test system: OVCAR-8
PC-3 = test system: PC-3
RPMI-8226 = test system: RPMI-8226
RXF 393 = test system: RXF 393
SF-268 = test system: SF-268
SF-295 = test system: SF-295
SF-539 = test system: SF-539
SK-MEL-28 = test system: SK-MEL-28
SK-MEL-2 = test system: SK-MEL-2
SK-MEL-5 = test system: SK-MEL-5
SK-OV-3 = test system: SK-OV-3
SN12C = test system: SN12C
SNB-19 = test system: SNB-19
SNB-75 = test system: SNB-75
SR = test system: SR
SW-620 = test system: SW-620
T47D = test system: T47D
TK-10 = test system: TK-10
U-251 = test system: U-251
UACC-257 = test system: UACC-257
UACC-62 = test system: UACC-62
UO-31 = test system: UO-31
HCC 2998 = test system: HCC 2998

Measured: GI50

NCCN1C(=O)c2ccccc2C1(O)c1ccc(Cl)cc1 (stereo not drawn)
inactive: 786-0 17.2 µM | A498 14.2 µM | A549 23.9 µM | ACHN 23 µM | BT-549 42.6 µM | CAKI-1 24.5 µM | CCRF-CEM 25.4 µM | COLO 205 19.6 µM | DU-145 33.9 µM | EKVX 21.3 µM | HCT-116 17.8 µM | HL-60 52.8 µM | HOP-62 24.2 µM | HOP-92 10.4 µM | HT-29 19.6 µM | Hs-578T 16.2 µM | IGROV-1 19 µM | K562 19.7 µM | KM12 16.9 µM | LOX IMVI 16.6 µM | M14 19 µM | MCF7 16.7 µM | MDA-MB-231 15.5 µM | MDA-MB-435 15.3 µM | MDA-N 18.2 µM | MOLT-4 17.3 µM | Malme-3M 14.1 µM | NCI-H226 48.8 µM | NCI-H23 36.8 µM | NCI-H460 16.4 µM | NCI-H522 14.2 µM | NCI/ADR-RES 37.4 µM | OVCAR-3 23.6 µM | OVCAR-4 28.5 µM | OVCAR-5 19.7 µM | OVCAR-8 37.2 µM | PC-3 20.3 µM | RPMI-8226 17.3 µM | RXF 393 17.3 µM | SF-268 27.1 µM | SF-295 21.9 µM | SF-539 21.6 µM | SK-MEL-28 17.6 µM | SK-MEL-2 16.5 µM | SK-MEL-5 16.4 µM | SK-OV-3 24.4 µM | SN12C 35.2 µM | SNB-19 23.1 µM | SNB-75 21.9 µM | SR 17.9 µM | SW-620 18.5 µM | T47D 19.4 µM | TK-10 17.9 µM | U-251 16.1 µM | UACC-257 17.1 µM | UACC-62 16.4 µM
37.3 µM: HCT-15

Cc1ccc(/N=C2N=C(Cl)/C(=C\c3ccco3)N\2)cc1
inactive: 786-0 > 100 µM | A498 > 100 µM | A549 > 100 µM | ACHN > 100 µM | BT-549 > 100 µM | CAKI-1 > 100 µM | CCRF-CEM > 100 µM | COLO 205 > 100 µM | DU-145 > 100 µM | EKVX > 100 µM | HCT-116 > 100 µM | HL-60 > 100 µM | HOP-62 > 100 µM | HOP-92 > 100 µM | HT-29 > 100 µM | Hs-578T > 100 µM | IGROV-1 > 100 µM | K562 > 100 µM | KM12 > 100 µM | LOX IMVI > 100 µM | M14 > 100 µM | MCF7 > 100 µM | MDA-MB-231 > 100 µM | MDA-MB-435 > 100 µM | MDA-N > 100 µM | MOLT-4 > 91.8 µM | Malme-3M > 100 µM | NCI-H226 > 100 µM | NCI-H23 > 100 µM | NCI-H460 > 100 µM | NCI-H522 > 100 µM | NCI/ADR-RES > 100 µM | OVCAR-3 > 100 µM | OVCAR-4 > 100 µM | OVCAR-5 > 100 µM | OVCAR-8 > 100 µM | PC-3 > 100 µM | RPMI-8226 > 87.1 µM | RXF 393 > 100 µM | SF-268 > 100 µM | SF-295 > 100 µM | SF-539 > 100 µM | SK-MEL-28 > 100 µM | SK-MEL-2 > 100 µM | SK-MEL-5 > 100 µM | SK-OV-3 > 100 µM | SN12C > 100 µM | SNB-19 > 100 µM | SNB-75 > 100 µM | SR 96.8 µM | SW-620 > 100 µM | T47D > 100 µM | TK-10 > 100 µM | U-251 > 100 µM | UACC-257 > 100 µM | UACC-62 > 100 µM | UO-31 > 100 µM
> 100 µM: HCT-15

CCCCNC(=O)c1cc2c(cc1Cl)Sc1nccn1S2(=O)=O
active: SK-MEL-5 0.0116 µM
inactive: 786-0 55.6 µM | A498 > 100 µM | A549 > 100 µM | ACHN 82 µM | BT-549 78 µM | CAKI-1 18.7 µM | CCRF-CEM 77.6 µM | COLO 205 60.7 µM | DU-145 > 100 µM | EKVX 70.8 µM | HCC 2998 > 100 µM | HCT-116 31 µM | HL-60 41.3 µM | HOP-62 24.3 µM | HOP-92 25.4 µM | HT-29 > 100 µM | Hs-578T 57.3 µM | IGROV-1 > 100 µM | K562 78.5 µM | KM12 > 100 µM | LOX IMVI 30.3 µM | M14 > 100 µM | MCF7 66.4 µM | MDA-MB-231 > 100 µM | MDA-MB-435 87.1 µM | MDA-N 61.4 µM | MOLT-4 79.6 µM | Malme-3M > 100 µM | NCI-H23 > 100 µM | NCI-H460 44.3 µM | NCI-H522 51.8 µM | NCI/ADR-RES 79.6 µM | OVCAR-3 34 µM | OVCAR-4 43.7 µM | OVCAR-5 > 100 µM | OVCAR-8 > 100 µM | PC-3 55.2 µM | RPMI-8226 > 100 µM | RXF 393 95.9 µM | SF-268 > 100 µM | SF-295 > 100 µM | SF-539 > 100 µM | SK-MEL-28 > 100 µM | SK-MEL-2 70 µM | SK-OV-3 > 100 µM | SN12C > 100 µM | SNB-19 > 100 µM | SNB-75 17.5 µM | SR 57.3 µM | SW-620 > 100 µM | T47D 64 µM | TK-10 > 100 µM | U-251 54.8 µM | UACC-257 > 100 µM | UACC-62 86.5 µM | UO-31 > 100 µM
92.9 µM: HCT-15

COC(=O)c1c(C(=O)OC)c2c3ccccc3n(C)c2c2c1c1ccccc1n2C
inactive: 786-0 34.2 µM | A498 95.1 µM | A549 65.2 µM | ACHN > 100 µM | BT-549 > 100 µM | CAKI-1 > 100 µM | CCRF-CEM > 100 µM | COLO 205 > 100 µM | DU-145 > 100 µM | EKVX 47.1 µM | HCC 2998 > 100 µM | HCT-116 > 100 µM | HOP-62 19.3 µM | HOP-92 > 100 µM | HT-29 > 100 µM | Hs-578T > 100 µM | IGROV-1 16.9 µM | K562 > 100 µM | KM12 > 100 µM | LOX IMVI > 100 µM | M14 > 100 µM | MCF7 > 100 µM | MDA-MB-231 17.1 µM | MDA-MB-435 > 100 µM | MDA-N > 100 µM | MOLT-4 > 100 µM | Malme-3M 89.9 µM | NCI-H226 > 100 µM | NCI-H23 > 100 µM | NCI-H460 > 100 µM | NCI-H522 58.1 µM | NCI/ADR-RES > 100 µM | OVCAR-4 31.4 µM | OVCAR-5 61.1 µM | OVCAR-8 > 100 µM | PC-3 54.6 µM | RPMI-8226 > 100 µM | SF-295 91.4 µM | SF-539 45.9 µM | SK-MEL-28 > 100 µM | SK-MEL-2 46.8 µM | SK-MEL-5 74.5 µM | SK-OV-3 50.2 µM | SN12C > 100 µM | SNB-19 27.6 µM | SNB-75 25.8 µM | SR > 100 µM | SW-620 > 100 µM | T47D > 100 µM | TK-10 > 100 µM | U-251 28.1 µM | UACC-257 > 100 µM | UACC-62 > 100 µM | UO-31 16.2 µM
> 100 µM: HCT-15
